{
  "source": "patent US20040009196A1",
  "about": "“Use of dhea and some of its derivatives in a cosmetic composition for preventing or treating dermal atrophy” (priority 2000, published 2004)",
  "key": {"[1]": {"system": "skin equivalent sold by the company EPISKIN", "test": "Epidermal differentiation in reconstructed epidermis: transglutaminase and filaggrin immunofluorescence, histological analysis", "format": "cell-based", "conditions": "2 μl of DHEA at 1×10^−4 M in ethanol, topical, every 48 hours for 6 days"}, "[2]": {"system": "skin equivalent sold by the company EPISKIN", "test": "Topical DHEA on reconstructed epidermis: epidermal lipid analysis by HPTLC with [14C]acetate labelling", "format": "cell-based", "conditions": "2 μl of DHEA at 1×10^−4 M in ethanol, every 48 hours for 6 days, vs ethanol control", "protocol": "In this example, 2 μl of DHEA at 1×10^−4 M in ethanol were applied every 48 hours, for 6 days, to a skin equivalent sold by the company EPISKIN (LYON, France), after culturing it for 7 days and incubating overnight with [^14C]acetate (2 μCi/ml). The culture and test media are those contained in the kit sold by the supplier. The control consists of an identical epidermal equivalent undergoing a topical application of 2 μl of ethanol diluted 1/1 000.\nAt the end of the incubation, the epidermal equivalent is detached from its collagenic support. The preparation of the lipids of the epidermal equivalent, and their analysis by HPTLC or high performance thin-layer chromatography, are carried out according to the technique and with the buffers described by M. Ponec (1991, Adv. Lipid Res., 24: 83-117). At the end of the migration of the lipids, autoradiography of the chromatography plate is carried out overnight."}},
  "data": [
    {"molecule": "C[C@]12CC[C@H](O)CC1=CC[C@@H]1[C@@H]2CC[C@]2(C)C(=O)CC[C@@H]12", "note": "[DHEA, dehydroepiandrosterone]", "values": [
      {"measurement": "histological analysis: number of granular layers or parakeratosis", "setting": "[1]", "result": "no increase in the number of granular layers or in parakeratosis"},
      {"measurement": "modification in epidermal differentiation (expression of transglutaminase and of filaggrin, immunofluorescence labelling)", "setting": "[1]", "result": "no modification in epidermal differentiation"},
      {"measurement": "increase in the epidermal content of phospholipids compared with the control", "setting": "[2]", "result": 35, "unit": "%"}
    ]}
  ]
}
